{
  "source": "patent US9776992B2",
  "about": "“1-oxo-1,2-dihydroisoquinolin-7-yl-(5-substituted-thiophen-2-yl)-sulfonamide compounds, formulations containing those compounds, and their use as AICARFT inhibitors in the treatment of cancers” (Eli Lilly and Company, priority 2014, dated 2017)",
  "molecular_target": "AICARFT (Homo sapiens, UniProt P31939)",
  "sequence (P31939 whole entry)": "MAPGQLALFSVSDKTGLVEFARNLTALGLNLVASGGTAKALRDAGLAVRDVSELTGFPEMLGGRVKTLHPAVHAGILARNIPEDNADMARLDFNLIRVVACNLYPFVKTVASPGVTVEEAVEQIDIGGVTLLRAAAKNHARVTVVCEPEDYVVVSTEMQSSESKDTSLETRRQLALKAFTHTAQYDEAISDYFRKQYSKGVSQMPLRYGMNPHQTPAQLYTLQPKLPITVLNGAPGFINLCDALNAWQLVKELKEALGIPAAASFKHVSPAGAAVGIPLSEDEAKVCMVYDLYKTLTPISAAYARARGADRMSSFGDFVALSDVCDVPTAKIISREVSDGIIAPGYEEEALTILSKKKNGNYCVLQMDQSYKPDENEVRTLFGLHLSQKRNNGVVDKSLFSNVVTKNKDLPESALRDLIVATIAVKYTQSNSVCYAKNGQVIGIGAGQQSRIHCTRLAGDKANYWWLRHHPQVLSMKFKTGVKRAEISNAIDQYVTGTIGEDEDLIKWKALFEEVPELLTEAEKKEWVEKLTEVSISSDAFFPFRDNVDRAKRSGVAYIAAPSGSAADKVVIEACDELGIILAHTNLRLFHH",
  "experiment": "AICARFT enzyme assay (LC-MS of IMP and ZMP)",
  "assay_type": "biochemical",
  "set-up": "made in house; host or cells: E. coli BL21(DE3)",
  "settings": "for IC50: Mean ± SEM, 25 μM ZMP, 100 μM 10-F-THFA, 3 nM ATIC enzyme, 1 hour at room temperature; for AICARFT inhibition in enzyme assay (in words): summary of Table 15",
  "description": "Human AICARFT (NCBI accession number: NM_004044.6) cDNA is purchased from Openbiosystem Co. (Cat# MHS1011-62310, Clone ID: 4300570, accession: BC008879). The nucleotide sequence encoding full-length human AICARFT is inserted into pET21d (Novagen) vector with an N-terminal HIS tag. Bacterial BL21(DE3) (Novagen) is used as an expression host, and the induction of protein expression is carried out in 2×TY media with 1 mM IPTG at 18° C. overnight. Cell pellets are stored at −80° C. for subsequent protein purification. Protein purification is conducted at 4° C. Frozen cell pellets are lysed by incubation with stirring in 50 mL cold lysis buffer (50 mM Tris-HCl, pH 7.5, 300 mM NaCl, 10% glycerol, 0.1% Triton X-100, 0.5 mg/mL lysozyme, 5 U/mL benzonase, 1 mM DTT, 10 mM imidazole, and Roche complete EDTA-free protease inhibitor) per liter cell pellet and sonication. Cell lysates are clarified by centrifugation in a Bechman JA-18 rotor for 45 min at 16,500 rpm. The supernatant is incubated with Ni-NTA agarose resin (Qiagen) for 3 hours, followed by an initial batch wash with 10 resin volume of buffer A (50 mM Tris-HCl, pH 7.5, 300 mM NaCl, 10% glycerol, 1 mM DTT, 10 mM imidazole) containing 0.1% Triton X-100. The resin is then packed onto a column and washed with buffer A. The HIS-tagged AICARFT protein is eluted with 10-500 mM imidazole gradient in buffer A. Pooled HIS-AICARFT containing fractions are concentrated, loaded onto a HiLoad 26/600 Superdex 200 column (GE Healthcare Biosciences), and eluted with storage buffer (50 mM Tris-HCl, pH7.5, 150 mM NaCl, 1 mM DTT, 10% Glycerol). Fractions containing HIS-AICARFT are pooled and protein concentration determined by the Bradford assay using BSA as standard. The protein is aliquoted and stored at −80° C.\nOne of the substrates of the enzyme reaction, 10-formyltetrahydrofolate (10-F-THFA), has limited chemical stability and is therefore synthesized on the same day that the ATIC enzyme assay is performed. The general synthetic route is described in P. Rowe, Methods Enzymol., 18, 733-735, (1971) and J. Rabinowitz, Methods Enzymol., 6, 814-815, (1963). The first step in this synthesis is the conversion of folinic acid (Sigma CAS 1492-18-8) to 5,10-methenyltetrahydrofolic acid (5,10-M-THFA). This conversion typically takes place the day before the enzyme assay is performed, but can be performed up to 1 week earlier and stored at room temperature. To folinic acid (81.6 mg) is added β-mercaptoethanol (2 mL), and 37% concentrated HCl (80 μL), is added. This reaction incubates a minimum of 3 hours at room temperature, with occasional mixing. The color changes from clear to yellow visually, and the complete conversion of folinic acid to 5,10-M-THFA is monitored by spectral analysis using a quartz cuvette. The UV absorption will change from 266 nm to 356 nm during this step. […] On the morning of the assay, the 80 mM 5,10-M-THFA is diluted to 1.6 mM in 40 μM ammonium bicarbonate (made fresh that day). This reaction incubates 3-5 hours at room temperature. The color changes from yellow to clear visually, and the conversion of 5,10-M-THFA to 10-F-THFA is monitored by spectral analysis using a quartz cuvette. The UV absorption will change from 356 nm to 258 nm during this step. […] Test compounds are prepared in DMSO to make a 10 mM stock solution. The stock solution is serially diluted 3-fold in DMSO to obtain a ten-point dilution curve with final compound concentrations ranging from 100 μM to 5 nM. The final DMSO concentration in the assay is 5%.\nTo each well of a 384-well polypropylene assay plate (NUNC 264573), […] of DMSO (control wells) or compound in DMSO and 9 μL of 55.56 μM ZMP (Sigma-Aldrich CAS 3031-94-5) in water are added. Then, 10 μL of 200 μM 10-F-THFA and 6 nM ATIC enzyme in 40 μM ammonium bicarbonate is added. […] The assay is incubated for 1 hour at room temperature, after which 40 μL of ACN is added to stop the reaction.",
  "data": [
    {"smiles": "O=c1[nH]ccc2cc(F)c(NS(=O)(=O)c3ccc(N4C[C@@H](O)C(F)(F)C4)s3)cc12", "note": "[Example 41, 5-[(4R)-3,3-difluoro-4-hydroxypyrrolidin-1-yl]-N-(6-fluoro-1-oxo-1,2-dihydroisoquinolin-7-yl)thiophene-2-sulfonamide]", "values": [
      {"measurement": "IC50", "value": 10.6, "unit": "nM"},
      {"measurement": "AICARFT inhibition in enzyme assay (in words)", "value": "inhibit AICARFT"}
    ]},
    {"smiles": "O=c1[nH]ccc2cc(F)c(NS(=O)(=O)c3ccc(N4C[C@@H](O)[C@@H](F)C4)s3)cc12", "note": "(single isomer, unassigned) [Example 33]", "values": [
      {"measurement": "IC50", "value": 7.75, "unit": "nM"},
      {"measurement": "AICARFT inhibition in enzyme assay (in words)", "value": "inhibit AICARFT"}
    ]},
    {"smiles": "O=c1[nH]ccc2cc(F)c(NS(=O)(=O)c3ccc(N4CC[C@@H](O)C4)s3)cc12", "note": "[Example 1, N-(6-Fluoro-1-oxo-1,2-dihydroisoquinolin-7-yl)-5-[(3R)-3-hydroxypyrrolidin-1-yl]thiophene-2-sulfonamide]", "values": [
      {"measurement": "AICARFT inhibition in enzyme assay (in words)", "value": "inhibit AICARFT"}
    ]},
    {"smiles": "CCC1(C)CC(c2ccc(S(=O)(=O)Nc3cc4c(=O)[nH]ccc4cc3F)s2)=CNC1=O", "note": "(single isomer, unassigned; isomer 1) [Example 84, 5-(5-Ethyl-5-methyl-6-oxo-1,4,5,6-tetrahydropyridin-3-yl)-N-(6-fluoro-1-oxo-1,2-dihydroisoquinolin-7-yl)thiophe2ne-2-sulfonamide, Isomer 1]", "values": [
      {"measurement": "IC50", "value": "< 5.08", "unit": "nM"},
      {"measurement": "AICARFT inhibition in enzyme assay (in words)", "value": "inhibit AICARFT"}
    ]},
    {"smiles": "CC1(C)CC(c2ccc(S(=O)(=O)Nc3cc4c(=O)[nH]ccc4cc3F)s2)=CNC1=O", "note": "[Example 81, 5-(5,5-Dimethyl-6-oxo-1,4,5,6-tetrahydropyridin-3-yl)-N-(6-fluoro-1-oxo-1,2-dihydroisoquinolin-7-yl)thiophene-2-sulfonamide]", "values": [
      {"measurement": "IC50", "value": "< 5.08", "unit": "nM"},
      {"measurement": "AICARFT inhibition in enzyme assay (in words)", "value": "inhibit AICARFT"}
    ]},
    {"smiles": "O=c1[nH]ccc2cc(F)c(NS(=O)(=O)c3ccc([C@@H]4CC[C@@H](O)C4)s3)cc12", "note": "(single isomer, unassigned) [Example 46]", "values": [
      {"measurement": "IC50", "value": 29.1, "unit": "nM"},
      {"measurement": "AICARFT inhibition in enzyme assay (in words)", "value": "inhibit AICARFT"}
    ]}
  ]
}
